Laboratory results taken from PubChem BioAssay (NCI).
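Results reflect a 48-hour exposure of cells in 96-well plates to compound at five concentrations. At the TGI there is no net growth.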

Key:
Test in all cases: growth of human tumour cells (NCI), 48 h
MOLT-4 leukemia = tested on: MOLT-4 leukemia
UACC-257 melanoma = tested on: UACC-257 melanoma
SK-MEL-5 melanoma = tested on: SK-MEL-5 melanoma
MDA-N = tested on: MDA-N
KM12 colon = tested on: KM12 colon
MCF7 breast = tested on: MCF7 breast
LOX IMVI melanoma = tested on: LOX IMVI melanoma
OVCAR-3 ovarian = tested on: OVCAR-3 ovarian
RPMI-8226 leukemia = tested on: RPMI-8226 leukemia
ACHN renal = tested on: ACHN renal
HCT-116 colon = tested on: HCT-116 colon
NCI-H23 lung = tested on: NCI-H23 lung
HCT-15 colon = tested on: HCT-15 colon
M14 melanoma = tested on: M14 melanoma
A549 NSCLC = tested on: A549 NSCLC
OVCAR-4 ovarian = tested on: OVCAR-4 ovarian
HCC-2998 colon = tested on: HCC-2998 colon
CAKI-1 renal = tested on: CAKI-1 renal
SF-295 CNS = tested on: SF-295 CNS
HT29 colon = tested on: HT29 colon
PC-3 prostate = tested on: PC-3 prostate
EKVX NSCLC = tested on: EKVX NSCLC
K-562 leukemia = tested on: K-562 leukemia
SK-MEL-28 melanoma = tested on: SK-MEL-28 melanoma
SNB-75 CNS = tested on: SNB-75 CNS
NCI-H226 lung = tested on: NCI-H226 lung
MDA-MB-435 = tested on: MDA-MB-435
MALME-3M melanoma = tested on: MALME-3M melanoma
NCI-H522 lung = tested on: NCI-H522 lung
MDA-MB-231 breast = tested on: MDA-MB-231 breast
SK-OV-3 ovarian = tested on: SK-OV-3 ovarian
SK-MEL-2 melanoma = tested on: SK-MEL-2 melanoma
CCRF-CEM leukemia = tested on: CCRF-CEM leukemia
UO-31 renal = tested on: UO-31 renal
OVCAR-5 ovarian = tested on: OVCAR-5 ovarian
COLO 205 colon = tested on: COLO 205 colon
SN12C renal = tested on: SN12C renal
UACC-62 melanoma = tested on: UACC-62 melanoma
HOP-92 NSCLC = tested on: HOP-92 NSCLC
A498 renal = tested on: A498 renal
DU-145 prostate = tested on: DU-145 prostate
U251 CNS = tested on: U251 CNS
HL-60(TB) leukemia = tested on: HL-60(TB) leukemia
NCI-H460 lung = tested on: NCI-H460 lung
RXF 393 renal = tested on: RXF 393 renal
TK-10 renal = tested on: TK-10 renal
NCI/ADR-RES ovarian = tested on: NCI/ADR-RES ovarian
IGROV1 ovarian = tested on: IGROV1 ovarian
HS 578T breast = tested on: HS 578T breast
OVCAR-8 ovarian = tested on: OVCAR-8 ovarian
BT-549 breast = tested on: BT-549 breast
T-47D breast = tested on: T-47D breast
SR leukemia = tested on: SR leukemia
HOP-62 NSCLC = tested on: HOP-62 NSCLC
SF-268 CNS = tested on: SF-268 CNS
SNB-19 CNS = tested on: SNB-19 CNS
786-0 renal = tested on: 786-0 renal
SF-539 CNS = tested on: SF-539 CNS
SW-620 colon = tested on: SW-620 colon
DMS 114 small cell lung = tested on: DMS 114 small cell lung
SNB-78 CNS = tested on: SNB-78 CNS
LXFL 529 NSCLC = tested on: LXFL 529 NSCLC
M19-MEL melanoma = tested on: M19-MEL melanoma
KM20L2 colon = tested on: KM20L2 colon
XF 498 CNS = tested on: XF 498 CNS
DMS 273 small cell lung = tested on: DMS 273 small cell lung
DLD-1 colon = tested on: DLD-1 colon

## C/C(=N/NC(=S)Nc1cccc(Cl)c1)c1ccccn1
MOLT-4 leukemia
  TGI: 1.47 µM
UACC-257 melanoma
  TGI: 2.41 µM
SK-MEL-5 melanoma
  TGI: 4 µM
MDA-N
  TGI: 15.5 µM
KM12 colon
  TGI: 13.5 µM
MCF7 breast
  TGI: 5.17 µM
LOX IMVI melanoma
  TGI: 9.49 µM
OVCAR-3 ovarian
  TGI: 12.3 µM
RPMI-8226 leukemia
  TGI: 17.8 µM
ACHN renal
  TGI: 8.13 µM
HCT-116 colon
  TGI: 12.2 µM
NCI-H23 lung
  TGI: 9.97 µM
HCT-15 colon
  TGI: 16.1 µM
M14 melanoma
  TGI: 3.82 µM
A549 NSCLC
  TGI: 10.1 µM
OVCAR-4 ovarian
  TGI: 16.9 µM
HCC-2998 colon
  TGI: 17.5 µM
CAKI-1 renal
  TGI: 11.8 µM
SF-295 CNS
  TGI: 9.39 µM
HT29 colon
  TGI: 13.9 µM
PC-3 prostate
  TGI: 15.1 µM
EKVX NSCLC
  TGI: 3.33 µM
K-562 leukemia
  TGI: 2.85 µM
SK-MEL-28 melanoma
  TGI: 16 µM
SNB-75 CNS
  TGI: 11.7 µM
NCI-H226 lung
  TGI: 2.59 µM
MDA-MB-435
  TGI: 15.4 µM
MALME-3M melanoma
  TGI: 10 µM
NCI-H522 lung
  TGI: 2.41 µM
MDA-MB-231 breast
  TGI: 10.3 µM
SK-OV-3 ovarian
  TGI: 10.4 µM
SK-MEL-2 melanoma
  TGI: 8.92 µM
CCRF-CEM leukemia
  TGI: > 15.9 µM
UO-31 renal
  TGI: 5.03 µM
OVCAR-5 ovarian
  TGI: 3.46 µM
COLO 205 colon
  TGI: 5.18 µM
SN12C renal
  TGI: 7.04 µM
UACC-62 melanoma
  TGI: 2.49 µM
HOP-92 NSCLC
  TGI: 11.1 µM
A498 renal
  TGI: 7.56 µM
DU-145 prostate
  TGI: 4.98 µM
U251 CNS
  TGI: 8.26 µM
HL-60(TB) leukemia
  TGI: 0.5 µM
NCI-H460 lung
  TGI: 5.46 µM
RXF 393 renal
  TGI: 9.76 µM
TK-10 renal
  TGI: 10.4 µM
NCI/ADR-RES ovarian
  TGI: 4.58 µM
IGROV1 ovarian
  TGI: 9.29 µM
HS 578T breast
  TGI: 10.1 µM
OVCAR-8 ovarian
  TGI: 9.29 µM
BT-549 breast
  TGI: 16 µM
T-47D breast
  TGI: 1.05 µM
SR leukemia
  TGI: 1.99 µM
HOP-62 NSCLC
  TGI: 3.5 µM
SF-268 CNS
  TGI: 12.5 µM
SNB-19 CNS
  TGI: 16.9 µM
786-0 renal
  TGI: 12.9 µM
SF-539 CNS
  TGI: 3.35 µM
SW-620 colon
  TGI: 17.9 µM

## N#CNC(=NCc1ccccc1)NCCc1c[nH]c2ccccc12
MOLT-4 leukemia
  TGI: > 100 µM
UACC-257 melanoma
  TGI: > 100 µM
SK-MEL-5 melanoma
  TGI: 83.3 µM
KM12 colon
  TGI: > 100 µM
LOX IMVI melanoma
  TGI: > 100 µM
OVCAR-3 ovarian
  TGI: > 100 µM
RPMI-8226 leukemia
  TGI: > 100 µM
ACHN renal
  TGI: > 100 µM
HCT-116 colon
  TGI: > 100 µM
NCI-H23 lung
  TGI: > 100 µM
HCT-15 colon
  TGI: > 100 µM
M14 melanoma
  TGI: > 100 µM
A549 NSCLC
  TGI: > 100 µM
OVCAR-4 ovarian
  TGI: > 100 µM
HCC-2998 colon
  TGI: > 100 µM
SF-295 CNS
  TGI: > 100 µM
HT29 colon
  TGI: > 100 µM
DMS 114 small cell lung
  TGI: > 100 µM
EKVX NSCLC
  TGI: > 100 µM
K-562 leukemia
  TGI: > 100 µM
SK-MEL-28 melanoma
  TGI: > 100 µM
SNB-78 CNS
  TGI: > 100 µM
SNB-75 CNS
  TGI: > 100 µM
LXFL 529 NSCLC
  TGI: > 100 µM
NCI-H226 lung
  TGI: > 100 µM
M19-MEL melanoma
  TGI: > 100 µM
SK-OV-3 ovarian
  TGI: > 100 µM
CCRF-CEM leukemia
  TGI: > 100 µM
UO-31 renal
  TGI: 86.2 µM
OVCAR-5 ovarian
  TGI: > 100 µM
COLO 205 colon
  TGI: > 100 µM
KM20L2 colon
  TGI: > 100 µM
SN12C renal
  TGI: > 100 µM
UACC-62 melanoma
  TGI: > 100 µM
U251 CNS
  TGI: > 100 µM
XF 498 CNS
  TGI: > 100 µM
HL-60(TB) leukemia
  TGI: > 100 µM
NCI-H460 lung
  TGI: > 100 µM
RXF 393 renal
  TGI: > 100 µM
TK-10 renal
  TGI: > 100 µM
IGROV1 ovarian
  TGI: > 100 µM
OVCAR-8 ovarian
  TGI: > 100 µM
DMS 273 small cell lung
  TGI: > 100 µM
SR leukemia
  TGI: > 100 µM
HOP-62 NSCLC
  TGI: > 100 µM
SF-268 CNS
  TGI: > 100 µM
SNB-19 CNS
  TGI: > 100 µM
786-0 renal
  TGI: 83.5 µM
DLD-1 colon
  TGI: > 100 µM
SF-539 CNS
  TGI: > 100 µM
SW-620 colon
  TGI: > 100 µM
